We go through twelve compounds from ChEMBL document CHEMBL1137073, “Development of irreversible diphenyl phosphonate inhibitors for urokinase plasminogen activator” (J Med Chem, 2004).

The target of assay [1] is T1, Prothrombin (Homo sapiens, UniProt P00734). The assay can be described thus: Inhibitory activity against thrombin.
Assay [2] addresses T2, Urokinase-type plasminogen activator (Homo sapiens, UniProt P00749). In words: (§1) Inhibitory activity against Urokinase-type plasminogen activator.
Assay [3] deals with T3, Plasminogen (Homo sapiens, UniProt P00747). The assay can be described thus: Inhibitory activity against plasmin.
For assay [4], the target named is T4, Tissue-type plasminogen activator (Homo sapiens, UniProt P00750). The assay can be described thus: Inhibitory activity against Tissue type plasminogen activator.
Target sequence in this assay (P00750 whole entry): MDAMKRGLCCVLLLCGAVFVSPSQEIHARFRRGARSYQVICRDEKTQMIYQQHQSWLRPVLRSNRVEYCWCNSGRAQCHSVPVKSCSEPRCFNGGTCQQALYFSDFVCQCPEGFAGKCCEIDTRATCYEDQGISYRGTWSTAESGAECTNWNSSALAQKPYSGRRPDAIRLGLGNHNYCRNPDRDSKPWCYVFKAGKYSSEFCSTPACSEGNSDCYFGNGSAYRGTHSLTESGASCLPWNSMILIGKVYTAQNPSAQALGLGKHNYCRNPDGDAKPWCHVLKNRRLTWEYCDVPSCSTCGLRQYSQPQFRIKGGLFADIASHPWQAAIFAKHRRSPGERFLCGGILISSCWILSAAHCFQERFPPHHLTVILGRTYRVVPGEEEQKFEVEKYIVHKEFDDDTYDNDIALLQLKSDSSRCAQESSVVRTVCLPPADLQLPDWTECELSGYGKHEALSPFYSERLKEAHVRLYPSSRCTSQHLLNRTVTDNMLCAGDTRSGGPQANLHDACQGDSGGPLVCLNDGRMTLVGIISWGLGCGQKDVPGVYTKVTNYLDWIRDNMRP
Assay [5] addresses T5, Coagulation factor X (Homo sapiens, UniProt P00742). The assay can be described thus: Inhibitory activity against Coagulation factor Xa.
The target in assay [6] is T4, Tissue-type plasminogen activator. The assay can be described thus: Inhibitory activity against Tissue type plasminogen activator at a concentration of.
Target sequence in this assay (P00750 36-562 limits assumed): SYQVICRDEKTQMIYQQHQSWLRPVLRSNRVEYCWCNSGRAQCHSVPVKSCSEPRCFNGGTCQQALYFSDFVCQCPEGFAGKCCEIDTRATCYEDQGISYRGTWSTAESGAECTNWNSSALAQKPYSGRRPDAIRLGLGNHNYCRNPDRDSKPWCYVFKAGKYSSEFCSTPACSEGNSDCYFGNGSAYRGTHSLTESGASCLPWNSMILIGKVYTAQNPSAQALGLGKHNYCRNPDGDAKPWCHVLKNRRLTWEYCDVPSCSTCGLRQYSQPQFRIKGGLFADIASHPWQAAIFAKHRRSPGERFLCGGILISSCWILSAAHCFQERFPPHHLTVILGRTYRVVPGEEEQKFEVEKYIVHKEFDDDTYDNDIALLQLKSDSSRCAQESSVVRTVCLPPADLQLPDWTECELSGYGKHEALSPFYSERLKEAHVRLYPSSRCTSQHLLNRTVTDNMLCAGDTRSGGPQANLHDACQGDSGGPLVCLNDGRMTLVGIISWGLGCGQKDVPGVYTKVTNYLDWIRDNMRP
Assay [7] has as its target T5, Coagulation factor X. To be noted: at 250 µM.
Description: Inhibitory activity against Coagulation factor Xa at a concentration of 250 uM
In assay [8] the target is T3, Plasminogen. To be noted: at 250 µM.
Description: Inhibitory activity against plasmin at a concentration of 250 uM
In assay [9] the target is T2, Urokinase-type plasminogen activator. The description is as §1. The source holds these as a separate data set.
The target of assay [10] is T1, Prothrombin. The assay can be described thus: Inhibitory activity against thrombin at a concentration of 2.5 uM.
The target in assay [11] is T4, Tissue-type plasminogen activator. The note with it: at 250 µM.
Target sequence in this assay (P00750 36-562 limits assumed): as above
Description: (§2) Inhibitory activity against Tissue type plasminogen activator at a concentration of 250 uM
The target in assay [12] is T1, Prothrombin. The note with it: at 250 µM.
Description: Inhibitory activity against thrombin at a concentration of 250 uM
Assay [13] addresses T4, Tissue-type plasminogen activator. The note with it: at 250 µM. This is another data set of the same source.
Target sequence in this assay (P00750 36-562 limits assumed): as above
Description: as §2
For assay [14] the target is unchanged. The assay can be described thus: Inhibitory activity against Tissue type plasminogen activator at a concentration of 2.5 uM.
Target sequence in this assay (P00750 36-562 limits assumed): as above

As a reminder, the IC50 is the concentration that inhibits the measured activity by half. The low end stands for inhibition by little substance, the high end for a need for much substance. In general, inhibition refers to how much of the control response was suppressed.

T5 sequence (P00742 41-179 limits assumed): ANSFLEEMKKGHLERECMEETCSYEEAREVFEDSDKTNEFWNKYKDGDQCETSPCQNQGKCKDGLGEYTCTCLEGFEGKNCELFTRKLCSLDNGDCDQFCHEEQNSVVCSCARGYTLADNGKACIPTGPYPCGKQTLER
T5 sequence (P00742 235-488 limits assumed): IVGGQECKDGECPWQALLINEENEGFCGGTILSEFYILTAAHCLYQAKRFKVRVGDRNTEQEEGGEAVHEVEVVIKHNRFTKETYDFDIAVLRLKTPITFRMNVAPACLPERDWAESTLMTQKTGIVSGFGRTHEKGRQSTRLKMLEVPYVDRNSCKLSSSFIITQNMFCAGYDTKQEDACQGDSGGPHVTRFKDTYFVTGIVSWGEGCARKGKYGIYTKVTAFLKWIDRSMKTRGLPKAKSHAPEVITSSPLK
T3 sequence (P00747 97-580 limits assumed): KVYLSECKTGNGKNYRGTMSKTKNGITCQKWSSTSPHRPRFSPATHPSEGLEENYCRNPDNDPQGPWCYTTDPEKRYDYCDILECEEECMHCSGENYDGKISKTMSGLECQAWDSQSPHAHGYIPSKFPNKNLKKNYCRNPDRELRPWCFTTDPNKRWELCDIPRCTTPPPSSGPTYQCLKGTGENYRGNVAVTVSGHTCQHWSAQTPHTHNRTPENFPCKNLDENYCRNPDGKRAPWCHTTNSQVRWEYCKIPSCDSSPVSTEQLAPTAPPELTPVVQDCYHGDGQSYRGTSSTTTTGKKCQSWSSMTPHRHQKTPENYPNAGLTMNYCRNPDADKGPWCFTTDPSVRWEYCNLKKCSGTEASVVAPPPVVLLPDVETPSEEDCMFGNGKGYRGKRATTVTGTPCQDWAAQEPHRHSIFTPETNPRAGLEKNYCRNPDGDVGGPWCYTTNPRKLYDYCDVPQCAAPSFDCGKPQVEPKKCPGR
T3 sequence (P00747 581-810 limits assumed): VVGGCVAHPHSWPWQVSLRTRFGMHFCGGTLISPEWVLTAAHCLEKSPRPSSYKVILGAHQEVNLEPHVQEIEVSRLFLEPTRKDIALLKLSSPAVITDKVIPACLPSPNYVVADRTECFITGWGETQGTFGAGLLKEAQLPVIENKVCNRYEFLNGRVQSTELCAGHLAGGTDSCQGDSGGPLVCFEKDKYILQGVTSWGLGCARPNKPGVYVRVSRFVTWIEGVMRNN

For `C[C@H](NC(=O)[C@@H](CO)NC(=O)OCc1ccccc1)C(=O)NC(Cc1ccc(N=C(N)N)cc1)P(=O)(Oc1ccccc1)Oc1ccccc1` (some centres undefined), the half-maximal inhibitory concentration (IC50) in assay [1] turned out to be 30 µM; in [2], 0.057 µM; in [3] it was 22 µM; in assay [4], 14 µM; in [5], 79 µM.

As for `C[C@H](NC(=O)[C@@H](CO)NC(=O)OCc1ccccc1)C(=O)NC(CCCNC(=N)N)P(=O)(Oc1ccccc1)Oc1ccccc1` (some centres undefined), the IC50 turned out to be 0.5 µM in assay [1], 0.061 µM in [2], 10.8 µM in [3] and 65 µM in assay [5].

As for `C[C@H](NC(=O)[C@@H](CO)NC(=O)OCc1ccccc1)C(=O)NC(CCNC(=N)N)P(=O)(Oc1ccccc1)Oc1ccccc1` (some centres undefined), the IC50 in assay [2] was 4.1 µM.

`C[C@H](NC(=O)[C@@H](CO)NC(=O)OCc1ccccc1)C(=O)NC(c1ccc(NC(=N)N)cc1)P(=O)(Oc1ccccc1)Oc1ccccc1` (some centres undefined): the inhibition in assay [6] was determined as 53%; in assay [7] it was 56%; in assay [8], 46%; in assay [10], 44%. In addition, in assay [9], the K app is 2 M⁻¹ s⁻¹.

In the case of `C[C@H](NC(=O)[C@@H](CO)NC(=O)OCc1ccccc1)C(=O)NC(c1ccc(CN=C(N)N)cc1)P(=O)(Oc1ccccc1)Oc1ccccc1` (some centres undefined), the inhibition in assay [11] worked out at 43%; in assay [12] it was 20%; in [7], 44%; in assay [8], 45%. In assay [2], this compound returned an IC50 of 8.4 µM. Also, the K app in assay [9] amounted to 3.3 M⁻¹ s⁻¹.

Turning to `C[C@H](NC(=O)[C@@H](CO)NC(=O)OCc1ccccc1)C(=O)NC(CCN=C(N)N)P(=O)(Oc1ccccc1)Oc1ccccc1` (some centres undefined), the inhibition in assay [13] was 46%; in assay [12], 96%; in [7], 6%; in [8] it was 15%; in assay [10] it was 10%. Besides, the K app in assay [9] was 1.4 M⁻¹ s⁻¹.

As to `C[C@H](NC(=O)[C@@H](CO)NC(=O)OCc1ccccc1)C(=O)NC(c1ccc(N=C(N)N)cc1)P(=O)(Oc1ccccc1)Oc1ccccc1` (some centres undefined), in [2], the IC50 is 1.6 µM.

On to `C[C@H](NC(=O)[C@@H](CO)NC(=O)OCc1ccccc1)C(=O)NC([C@H]1CC[C@H](CN=C(N)N)CC1)P(=O)(Oc1ccccc1)Oc1ccccc1` (some centres undefined), for which the inhibition turned out to be 41% in [11], 40% in assay [12] and 77% in assay [7]. In addition, the figures for the IC50 in [2] and in [3] were 1.1 µM and 32.2 µM, respectively. For the same compound, the K app in assay [9] worked out at 1.4 M⁻¹ s⁻¹.

In the case of `C[C@H](NC(=O)[C@@H](CO)NC(=O)OCc1ccccc1)C(=O)NC(CCCCN=C(N)N)P(=O)(Oc1ccccc1)Oc1ccccc1` (some centres undefined), the inhibition in [14] worked out at 19%; in assay [10] it was 12%. The compound also displayed an IC50 in [2] of 0.25 µM. The K app in assay [9] was 3.8 M⁻¹ s⁻¹.

`N=C(N)NC(=O)c1nc(Cl)c(N)nc1N` [AMILORIDE]: the IC50 in assay [1] and in assay [4] was more than 250 µM in each case. Further, the figures for the inhibition in assay [7] and in assay [8] were 17% and 23%, respectively.

As to `C[C@H](NC(=O)[C@@H](CO)NC(=O)OCc1ccccc1)C(=O)NC(CCCN=C(N)N)P(=O)(Oc1ccccc1)Oc1ccccc1` (some centres undefined), in assay [14], the inhibition was found to be 50%.

Take `C[C@H](NC(=O)[C@@H](CO)NC(=O)OCc1ccccc1)C(=O)NC(Cc1ccc(NC(=N)N)cc1)P(=O)(Oc1ccccc1)Oc1ccccc1` (some centres undefined): in assay [9], the K app stood at 6.7 M⁻¹ s⁻¹.
